Key:
Format in all cases: in vivo
[1] = tested on: patient suffering from chemical burns; assay: Example D: topical composition applied to chemical burns; details: 0.20% w/v Compound of Example 3, topical, at each dressing change (b.i.d.)
Excerpt: An topical composition for local administration, according to the present invention, is made comprising:
A patient suffering from chemical burns applies the composition at each dressing change (b.i.d.).

[2] = tested on: human subject suffering from osteoarthritis; assay: Example B: capsule given daily to a subject with osteoarthritis; details: capsule containing 70 mg of Example 3 daily for 5 years, 90 kg person
Description: A capsule for oral administration, according to the present invention, is made comprising:
A human subject weighing 90 kg (198 lbs), suffering from osteoarthritis, is treated by a method of this invention. Specifically, for 5 years, a capsule containing 70 mg of Example 3 is administered daily to said subject.

[3] = tested on: human subject suffering from rheumatoid arthritis; assay: Example A: tablets given orally to a subject with rheumatoid arthritis; details: tablet with 15 mg Example 9, three tablets per day orally for 2 years, 60 kg person
Description: A tablet composition for oral administration, according to the present invention, is made comprising:
A human subject weighing 60 kg (132 lbs), suffering from rheumatoid arthritis, is treated by a method of this invention. Specifically, for 2 years, a regimen of three tablets per day is administered orally to said subject.

Compound	scarring after chemical burns [1]	erosion/fibrillation of the articular cartilage, examined via orthoscopy [2]	inflammation at the end of the treatment period [3]	mobility at the end of the treatment period [3]
COc1ccc(S(=O)(=O)N2CCCN(S(C)(=O)=O)C2C(=O)NO)cc1 (racemic) [Example 3, N-hydroxy 1-[(4-methoxyphenyl)sulfonyl]-3-[methylsulphonyl]-hexahydro-pyrimidine-2(R, S)-carboxamide]	substantially diminished	no further advancement of erosion/fibrillation of the articular cartilage	–	–
COc1ccc(S(=O)(=O)N2CC(C)(C)C(=O)N(Cc3ccccc3)C2C(=O)NO)cc1 (stereo not shown) [Example 9, N-hydroxy-1-[(4-methoxyphenyl)sulfonyl]-3-phenylmethyl-4-oxo-5,5-dimethyl-hexahydro-pyrimidin-2-carboxamide]	–	–	reduced inflammation	improved mobility without concomitant pain
